Experimental data from patent US10137171B2, “Methods of treatment using a pentapeptide derived from the C-Terminus of Glucagon-Like Peptide 1 (GLP-1)” (The General Hospital Corporation, priority 2011, dated 2018).
“Also recorded” adds a separate entry of the source. Where no end group is shown, it is not given here.

What was measured:
diet-induced obese mice = test: Plasma circulating glycerol and triglyceride (FIG. 6C); type: in vivo, mouse; details: 16 weeks continuous infusion, 60% fat diet 24 weeks (FIG. 6C)
Text: FIG. 6C is a table showing continuous infusion of GLP-1(32-36)amide for 16-weeks improves plasma circulating levels of glycerol and triglyceride in mice fed on a 60% fat diet (VHFD) for 24-weeks. *p<0.02, peptide vs. vehicle; **p<0.008 peptide vs. vehicle.

[1] = tested on: insulin-resistant isolated mouse hepatocytes; test: Glucose production assay in isolated hepatocytes; type: cell-based; details: stimulated by cAMP/dexamethasone/lactate; basal glucose production not suppressed
Text: FIG. 8 is a bar graph showing suppression of glucose production by the pentapeptide GLP-1(32-36)amide (LVKGRamide (SEQ ID NO:1)) in insulin-resistant hepatocytes. Mice (male, C57bl/6) from 12-19 weeks of age were fasted overnight (16 hrs) and primary hepatocytes were isolated using a collagen and perfusion gradient purification. Cells were first seeded using a Dulbecco's modified Eagle's medium (DMEM) supplemented with 10% FBS, 1 g/L glucose, 2 mmol/1 sodium pyruvate, 1 micromol/L dexamethasone, and 0.1 micromol/L insulin, and later maintained in DMEM with 0.2% BSA, 1 g/L glucose, 0.1 micromol/L dexamethasone, and lnmol/L insulin. […] The readings were then normalized to total protein content determined from whole-cell lysates. […]
Primary hepatocytes (2×10^5 cells per well in twelve-well plates) were pre-treated with GLP-1(32-36)amide for 1 hour followed by the stimulation of insulin resistance by the addition of cAMP (10 microM)/dexamethasone ([…])/sodium lactate (2 mM) in glucose-free DMEM without phenol red. […] The readings were then normalized to total protein content determined from whole-cell lysates.

[2] = tested on: insulin-resistant isolated mouse hepatocytes; test: ROS formation assay (isolated primary hepatocytes); type: cell-based; details: 30 mM glucose 24 h; peptide 10 pM, 100 pM and 100 nM (FIG. 9A)
Experimental: FIG. 9A is a bar graph showing suppression of the production of reactive oxygen species (ROS) by the pentapeptide GLP-1(32-36)amide in insulin-resistant isolated mouse hepatocytes. Hepatocytes were rendered insulin-resistant by their pre-incubation in 30 mM glucose. Primary hepatocytes from C57BL/6J mice were seeded at 2×10^5 cell per well in twelve-well plates and treated for 24 h with 30 mM glucose in the absence of presence of GLP-1(32-36)amide (10 pM, 100 pM and 100 nM). To measure ROS levels cells were washed twice in HBSS (Hanks' Balance Salt Solution) and incubated with 10 uM 5-(and 6)-carboxy-2′,7′-dichlorohydro-fluorescein diacetate (CM-H2DCFDA) (Molecular Probes) for 45 minutes. The media were removed and cells were lysed. ROS was measured in the cell lysates using a spectrofluorometer (485 nm/535 nm). Data were normalized to values obtained from untreated controls. The data shown are the means of two independent hepatocyte isolations+/−SEMs.
Primary hepatocytes from diet-induced obese (DIO) and C57BL/6J mice were seeded in 12-well plates at a density of 2×10^5/well for 24 h. C57BL/6J hepatocytes were treated with 30 mM glucose in the absence or presence of GLP-1(32-36)amide for 20 to 24 h and compared to DIO hepatocytes treated with GLP-1(32-36)amide. […] ROS was measured in the cell lysates using a spectrofluorometer (485 nm/535 nm). […]

LVKGRamide (LVKGR-NH2) [GLP-1(32-36)amide, pentapeptide derived from the C-terminus of the glucoincretin hormone GLP-1]
plasma circulating levels of glycerol and triglyceride (diet-induced obese mice): improves; also recorded: lowered | glucose production (formation) [1]: suppression | ROS levels [2]: prevented the rise in ROS levels; also recorded: suppression
